Patent publication US20250059172A1, “INDAZOLE COMPOUND AND PHARMACEUTICAL” (NIPPON SHINYAKU CO., LTD., priority 2021, published 2025)
Structures can show the parent of a compound that is named as a salt.

Columns and labels:
[1] = tested on: human A549 cells; assay: Inhibition test of PGE2 production using human A549 cells; assay type: cell-based; settings: IL-1β stimulated A549 cells, 24 h, PGE2 by HTRF, read-out: A549 cell inhibition of PGE2 production IC50
Protocol: 100 μL of RPMI medium (Sigma) comprising 10% FBS and human A549 cells was seeded in a 96-well plate to […] cells per well, and incubated overnight. The medium was then removed and washed with phosphate-buffered saline, and added to a DMSO solution of the test compound or RPMI medium comprising 3% FBS with DMSO to a final concentration of 0.1% DMSO. After incubation for 60 minutes, IL-1P (5 ng/well, BioLegend) was added to the solution. After incubation at 37° C. for 24 h, PGE2 in the medium was quantified using the HTRF kit (Cisbio International) and PGF2a was also quantified using the EIA kit (Cayman chemical). Solutions without the test compound were used as positive controls, and solutions without the test compound and IL-1β were used as negative controls. 100% activity was defined as production of PGE2 and PGF2a in the positive control minus those in the negative control. IC50 values were then determined using standard methods.

[2] = target: human mPGES-1 (Homo sapiens (Human), UniProt O14684); assay: mPGES-1 inhibitory activity test; assay type: biochemical; settings: microsomes of CHO-K1 cells expressing human mPGES-1, PGH2 1 μM, PGE2 by HTRF; read-out: mPGES-1 inhibition (IC50 nM)
Protocol: mPGES-1 microsomal specimens were prepared by transiently transfecting CHO-K1 cells (DS Pharma Biomedical Co. Ltd) with a plasmid encoding human mPGES-1 cDNA using FuGENE 6 Transfection Reagent (Promega). The prepared mPGES-1 microsome specimens were diluted in potassium phosphate buffer of pH 7.4 comprising 2.5 mM reduced glutathione (Sigma-Aldrich), DMSO solution of a test compound or DMSO was added to a final concentration of 1% of DMSO, and then incubated at 4° C. for 20 minutes. The enzymatic reaction was then initiated by adding a solution of PGH2 (Cayman chemical) substrate of a final concentration 1 μM and incubated at 4° C. for 60 seconds. The reaction was terminated by adding a solution of ferric chloride (STREM CHEMICALS) and citric acid (Wako Pure Chemical Industries) salt to a final concentration of 5 mg/mL and 250 mM, respectively. The formed PGE2 was quantified using the HTRF kit (Cisbio International). Solutions without the test compound were used as positive controls, and solutions without the test compound and microsomal specimens were used as negative controls. 100% activity was defined as production of PGE2 in the positive control minus that in the negative control. The percentage inhibition of production of PGE2 at final concentrations of 10 nM and 100 nM of the test compound was then calculated, or IC50 values were determined using standard methods.

Chain of human mPGES-1 (O14684 whole entry): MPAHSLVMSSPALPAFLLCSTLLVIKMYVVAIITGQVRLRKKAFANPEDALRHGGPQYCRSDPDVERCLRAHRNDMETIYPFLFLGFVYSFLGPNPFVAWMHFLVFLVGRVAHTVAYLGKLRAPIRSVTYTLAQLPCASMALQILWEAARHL

Row | SMILES | IC50 [1] | IC50 [2]
1 | O=C(Nc1cccc2c1cnn2-c1ccc(C(F)(F)F)cc1)c1cc(CNC(=O)C2CC2)ccc1Cl [Example 1, 2-Chloro-5-{[(cyclopropylcarbonyl)amino]methyl}-N-{1-[4-(trifluoromethyl)phenyl]-1H-indazol-4-yl}benzamide] | 4.5 nM | 1.5 nM
2 | O=C(Nc1cccc2c1cnn2-c1ccccc1)c1cc(CNC(=O)C2CC2)ccc1Cl [Example 2, 2-Chloro-5-{[(cyclopropylcarbonyl)amino]methyl}-N-(1-phenyl-1H-indazol-4-yl)benzamide] | 6.3 nM | 0.2 nM
3 | O=C(Nc1cccc2c1cnn2-c1cccc(C(F)(F)F)c1)c1cc(CNC(=O)C2CC2)ccc1Cl [Example 3, 2-Chloro-5-{[(cyclopropylcarbonyl)amino]methyl}-N-{1-[3-(trifluoromethyl)phenyl]-1H-indazol-4-yl}benzamide] | 0.7 nM | 1.2 nM
4 | O=C(Nc1cccc2c1cnn2-c1cccnc1)c1cc(CNC(=O)C2CC2)ccc1Cl [Example 4, 2-Chloro-5-{[(cyclopropylcarbonyl)amino]methyl}-N-[1-(pyridin-3-yl)-1H-indazol-4-yl]benzamide hydrochloride] |  | 18.8 nM
5 | O=C(Nc1cccc2c1cnn2-c1ccncc1)c1cc(CNC(=O)C2CC2)ccc1Cl [Example 5, 2-Chloro-5-{[(cyclopropylcarbonyl)amino]methyl}-N-[1-(pyridin-4-yl)-1H-indazol-4-yl]benzamide hydrochloride] | 688 nM | 9.6 nM
6 | Cc1ccc(-n2ncc3c(NC(=O)c4cc(CNC(=O)C5CC5)ccc4Cl)cccc32)cc1 [Example 6, 2-Chloro-5-{[(cyclopropylcarbonyl)amino]methyl}-N-[1-(4-methylphenyl)-1H-indazol-4-yl]benzamide] | 0.6 nM | 1.3 nM
7 | Cc1cccc(-n2ncc3c(NC(=O)c4cc(CNC(=O)C5CC5)ccc4Cl)cccc32)c1 [Example 7, 2-Chloro-5-{[(cyclopropylcarbonyl)amino]methyl}-N-[1-(3-methylphenyl)-1H-indazol-4-yl]benzamide] | 1.6 nM | 1.8 nM
8 | O=C(Nc1cccc2c1cnn2-c1ccccn1)c1cc(CNC(=O)C2CC2)ccc1Cl [Example 8, 2-Chloro-5-{[(cyclopropylcarbonyl)amino]methyl}-N-[1-(pyridin-2-yl)-1H-indazol-4-yl]benzamide] | 11.3 nM | 3.9 nM
9 | Cc1ccccc1-n1ncc2c(NC(=O)c3cc(CNC(=O)C4CC4)ccc3Cl)cccc21 [Example 9, 2-Chloro-5-{[(cyclopropylcarbonyl)amino]methyl}-N-[1-(2-methylphenyl)-1H-indazol-4-yl]benzamide] | 4.1 nM | 2.2 nM
10 | Cc1ccc(-n2ncc3c(NC(=O)c4cc(CNC(=O)C5CC5)ccc4Cl)cccc32)cn1 [Example 10, 2-Chloro-5-{[(cvclopropylcarbonyl)amino]methyl}-N-[1-(6-methylpyridin-3-yl)-1H-indazol-4-yl]benzamide hydrochloride] | 31.2 nM | 10 nM
11 | O=C(Nc1cccc2c1cnn2-c1cncc(C(F)(F)F)c1)c1cc(CNC(=O)C2CC2)ccc1Cl [Example 11, 2-Chloro-5-{[(cvclopropylcarbonyl)amino]methyl}-N-{1-[5-(trifluoromethyl)pyridin-3-yl]-1H-indazol-4-yl}benzamide] | 3.4 nM | 2.9 nM
12 | O=C(Nc1cccc2c1cnn2-c1ccc(C(F)(F)F)nc1)c1cc(CNC(=O)C2CC2)ccc1Cl [Example 12, 2-Chloro-5-{[(cyclopropylcarbonyl)amino]methyl}-N-{1-[6-(trifluoromethyl)pyridin-3-yl]-1H-indazol-4-yl}benzamide] | 1.1 nM | 2.7 nM
13 | COc1ccccc1-n1ncc2c(NC(=O)c3cc(CNC(=O)C4CC4)ccc3Cl)cccc21 [Example 13, 2-Chloro-5-{[(cyclopropylcarbonyl)amino]methyl}-N-[1-(2-methoxyphenyl)-1H-indazol-4-yl]benzamide] | 505 nM | 2 nM
14 | CC(C)(C)c1ccc(-n2ncc3c(NC(=O)c4cc(CNC(=O)C5CC5)ccc4Cl)cccc32)cc1 [Example 14, N-[1-(4-tert-butylphenyl)-1H-indazol-4-yl]-2-chloro-5-{[(cyclopropylcarbonyl)amino]methyl}benzamide] | 0.4 nM | 1.1 nM
15 | Cc1c(Cl)cccc1-n1ncc2c(NC(=O)c3cc(CNC(=O)C4CC4)ccc3Cl)cccc21 [Example 15, 2-Chloro-N-[1-(3-chloro-2-methylphenyl)-1H-indazol-4-yl]-5-{[(cyclopropylcarbonyl)amino]methyl}benzamide] | 7.8 nM | 5.6 nM
16 | O=C(Nc1cccc2c1cnn2-c1cccc(C(F)(F)F)c1)c1c(F)ccc(CNC(=O)C2CC2)c1F [Example 16, 3-{[(Cyclopropylcarbonyl)amino]methyl}-2,6-difluoro-N-{1-[3-(trifluoromethyl)phenyl]-1H-indazol-4-yl}benzamide] | 9.7 nM | 6.3 nM
17 | O=C(Nc1cccc2c1cnn2-c1ccc(C(F)(F)F)cc1)c1cc(CNC(=O)C(F)(F)F)ccc1Cl [Example 17, 2-Chloro-5-{[(trifluoroacetyl)amino]methyl}-N-{1-[4-(trifluoromethyl)phenyl]-1H-indazol-4-yl}benzamide] | 1.6 nM | 17 nM
18 | CC(=O)NCc1ccc(Cl)c(C(=O)Nc2cccc3c2cnn3-c2ccc(C(F)(F)F)cc2)c1 [Example 18, 5-[(Acetylamino)methyl]-2-chloro-N-{1-[4-(trifluoromethyl)phenyl]-1H-indazol-4-yl}benzamide] | 52.4 nM | 84.7 nM
19 | CCC(=O)NCc1ccc(Cl)c(C(=O)Nc2cccc3c2cnn3-c2ccc(C(F)(F)F)cc2)c1 [Example 19, 2-Chloro-5-[(propanoylamino)methyl]-N-{1-[4-(trifluoromethyl)phenyl]-1H-indazol-4-yl}benzamide] | 1 nM | 6.1 nM
20 | CC(C)(C)CC(=O)NCc1ccc(Cl)c(C(=O)Nc2cccc3c2cnn3-c2ccc(C(F)(F)F)cc2)c1 [Example 20, 2-Chloro-5-{[(3,3-dimethylbutanoyl)amino]methyl}-N-{1-[4-(trifluoromethyl)phenyl]-1H-indazol-4-yl}benzamide] | 2.8 nM | < 1 nM
21 | COCC(=O)NCc1ccc(Cl)c(C(=O)Nc2cccc3c2cnn3-c2ccc(C(F)(F)F)cc2)c1 [Example 21, 2-Chloro-5-{[(methoxyacetyl)amino]methyl}-N-{1-[4-(trifluoromethyl)phenyl]-1H-indazol-4-yl}benzamide] | 68 nM | 3.8 nM
22 | O=C(NCc1ccc(Cl)c(C(=O)Nc2cccc3c2cnn3-c2ccc(C(F)(F)F)cc2)c1)c1ccccc1 [Example 22, 2-Chloro-5-{[(phenylcarbonyl)amino]methyl}-N-{1-[4-(trifluoromethyl)phenyl]-1H-indazol-4-yl}benzamide] | 12.8 nM | 3.3 nM
23 | O=C(Nc1cccc2c1cnn2-c1ccc(C(F)(F)F)cc1)c1cc(CNS(=O)(=O)C2CC2)ccc1Cl [Example 23, 2-Chloro-5-{[(cyclopropylsulfonyl)amino]methyl}-N-{1-[4-(trifluoromethyl)phenyl]-1H-indazol-4-yl}benzamide] | 1.5 nM | 5.2 nM
24 | CN(C)CC(=O)NCc1ccc(Cl)c(C(=O)Nc2cccc3c2cnn3-c2ccc(C(F)(F)F)cc2)c1 [Example 24, 2-Chloro-5-{[(N,N-dimethylglycyl)amino]methyl}-N-{1-[4-(trifluoromethyl)phenyl]-1H-indazol-4-yl}benzamide hydrochloride] | 46.4 nM | 57.1 nM
25 | N#CC1(C(=O)NCc2ccc(Cl)c(C(=O)Nc3cccc4c3cnn4-c3ccc(C(F)(F)F)cc3)c2)CC1 [Example 25, 2-Chloro-5-({[(1-cyanocyclopropyl)carbonyl]amino}methyl)-N-{1-[4-(trifluoromethyl)phenyl]-1H-indazol-4-yl}benzamide] | 8.6 nM | 3.9 nM
26 | CC#CC(=O)NCc1ccc(Cl)c(C(=O)Nc2cccc3c2cnn3-c2ccc(C(F)(F)F)cc2)c1 [Example 42, 5-[(2-Butynoylamino)methyl]-2-chloro-N-{1-[4-(trifluoromethyl)phenyl]-1H-indazol-4-yl}benzamide] |  | 391 nM
